Test results: patent publication US11111237B2, “Bicyclic compound and use thereof” (SK BIOPHARMACEUTICALS CO., LTD., priority 2019, dated 2021)
Counter-ions that a name gives are not always drawn.

Target: PRMT5-MEP50 enzyme complex (Homo sapiens (Human), UniProt O14744)
Assay: PRMT5 enzyme activity in vitro assay (methylation of histone H4R3, ELISA absorbance at 450 nm)
Format: biochemical
Details: SAM, histone H4 peptide, room temperature 2 hours, 8 points from 10 μM to 0.128 nM
Method in brief: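 IC50 was derived from ELISA absorbance at 450 nm, using primary and HRP antibodies against H4R3 methylation on immobilised histone H4 peptide (residues 1-20). Compounds (10 μM to 0.128 nM, 8 points, 1:5) were incubated 2 h at room temperature with the PRMT5-MEP50 complex and SAM, diluted to 5 μg/mL and 2 μM respectively.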

Sequence of PRMT5-MEP50 enzyme complex (O14744 2-637): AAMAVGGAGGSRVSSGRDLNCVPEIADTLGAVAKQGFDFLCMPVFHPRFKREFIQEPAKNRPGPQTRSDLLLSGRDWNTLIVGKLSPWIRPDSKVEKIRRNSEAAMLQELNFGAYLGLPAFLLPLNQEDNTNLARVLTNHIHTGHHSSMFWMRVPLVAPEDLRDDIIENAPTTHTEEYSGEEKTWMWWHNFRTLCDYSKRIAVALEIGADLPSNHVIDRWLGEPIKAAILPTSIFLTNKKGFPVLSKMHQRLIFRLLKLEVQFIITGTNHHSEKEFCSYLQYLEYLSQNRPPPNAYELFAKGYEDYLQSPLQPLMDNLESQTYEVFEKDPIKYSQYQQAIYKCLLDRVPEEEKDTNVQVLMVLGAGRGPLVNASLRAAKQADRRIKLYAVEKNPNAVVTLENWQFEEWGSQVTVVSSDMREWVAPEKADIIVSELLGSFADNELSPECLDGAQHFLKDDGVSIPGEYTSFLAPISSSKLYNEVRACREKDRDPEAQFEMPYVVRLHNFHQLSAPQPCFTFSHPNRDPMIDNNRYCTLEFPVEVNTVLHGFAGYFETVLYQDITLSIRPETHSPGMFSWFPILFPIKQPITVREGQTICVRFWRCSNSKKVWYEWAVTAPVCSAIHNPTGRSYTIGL
Sequence of PRMT5-MEP50 enzyme complex (Q9BQA1 2-342 partner): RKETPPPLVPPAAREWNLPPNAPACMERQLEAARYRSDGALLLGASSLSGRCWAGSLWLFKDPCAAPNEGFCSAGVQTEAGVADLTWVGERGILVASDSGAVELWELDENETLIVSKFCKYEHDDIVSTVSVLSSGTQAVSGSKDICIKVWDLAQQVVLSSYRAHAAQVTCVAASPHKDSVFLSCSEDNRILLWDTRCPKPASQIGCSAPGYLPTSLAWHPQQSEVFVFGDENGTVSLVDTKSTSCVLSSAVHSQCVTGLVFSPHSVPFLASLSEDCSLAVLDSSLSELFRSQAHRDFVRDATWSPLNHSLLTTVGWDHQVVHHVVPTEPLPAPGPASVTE

| Compound | IC50 [nM] |
| --- | --- |
| CN1CCN(C[C@H](O)CN2CCc3ccccc3C2)C(=O)c2ccc(OC3CCN(C4CCC4)CC3)cc21 [Example 127, 8-[(1-cyclobutyl-4-piperidyl)oxy]-4-[(2R)-3-(3,4-dihydro-1H-isoquinolin-2-yl)-2-hydroxy-propyl]-1-methyl-2,3-dihydro-1,4-benzodiazepin-5-one] | 1 to 100 |
| CN1CCN(C[C@H](O)CN2CCc3ccccc3C2)C(=O)c2ccc(OC3CCN(C4CCOC4)CC3)cc21 (stereo partly drawn) [Example 128, 4-[(2R)-3-(3,4-dihydro-1H-isoquinolin-2-yl)-2-hydroxy-propyl]-1-methyl-8-[(1-tetrahydrofuran-3-yl-4-piperidyl)oxy]-2,3-dihydro-1,4-benzodiazepin-5-one] | 100 to 1000 |
| CN1CCN(C[C@H](O)CN2CCc3ccccc3C2)C(=O)c2ccc(OC3CCN(C4COC4)CC3)cc21 [Example 129, 4-[(2R)-3-(3,4-dihydro-1H-isoquinolin-2-yl)-2-hydroxy-propyl]-1-methyl-8-[[1-(oxetan-3-yl)-4-piperidyl]oxy]-2,3-dihydro-1,4-benzodiazepin-5-one] | 100 to 1000 |
| CN1CCC(COc2ccc3c(c2)N(C)CCN(C[C@H](O)CN2CCc4ccccc4C2)C3=O)C1 (stereo partly drawn) [Example 131, 4-[(2R)-3-(3,4-dihydro-1H-isoquinolin-2-yl)-2-hydroxy-propyl]-1-methyl-8-[(1-methylpyrrolidin-3-yl)methoxy]-2,3-dihydro-1,4-benzodiazepin-5-one] | 100 to 1000 |
| CN1CCCC(COc2ccc3c(c2)N(C)CCN(C[C@H](O)CN2CCc4ccccc4C2)C3=O)C1 (stereo partly drawn) [Example 133, 4-[(2R)-3-(3,4-dihydro-1H-isoquinolin-2-yl)-2-hydroxy-propyl]-1-methyl-8-[(1-methyl-3-piperidyl)methoxy]-2,3-dihydro-1,4-benzodiazepin-5-one] | 1 to 100 |
| CN1CCN(C[C@H](O)CN2CCc3ccccc3C2)C(=O)c2ccc(OCc3ccncc3F)cc21 [Example 134, 4-[(2R)-3-(3,4-dihydro-1H-isoquinolin-2-yl)-2-hydroxy-propyl]-8-[(3-fluoro-4-pyridyl)methoxy]-1-methyl-2,3-dihydro-1,4-benzodiazepin-5-one] | 1 to 100 |
| CCN1CCC(Oc2ccc3c(c2)N(C)CCN(C[C@H](O)CN2CCc4ccccc4C2)C3=O)C(F)C1 (stereo partly drawn) [Example 136, 4-[(2R)-3-(3,4-dihydro-1H-isoquinolin-2-yl)-2-hydroxy-propyl]-8-[(1-ethyl-3-fluoro-4-piperidyl)oxy]-1-methyl-2,3-dihydro-1,4-benzodiazepin-5-one] | 100 to 1000 |
| CCN1C2CCC1CC(Oc1ccc3c(c1)N(C)CCN(C[C@H](O)CN1CCc4ccccc4C1)C3=O)C2 (stereo partly drawn) [Example 137, 4-[(2R)-3-(3,4-dihydro-1H-isoquinolin-2-yl)-2-hydroxy-propyl]-8-[(8-ethyl-8-azabicyclo[3.2.1]octan-3-yl)oxy]-1-methyl-2,3-dihydro-1,4-benzodiazepin-5-one] | 1 to 100 |
| CN1CCN(C[C@H](O)CN2CCc3ccccc3C2)C(=O)c2ccc(OCc3ccc(F)cn3)cc21 [Example 139, 4-[(2R)-3-(3,4-dihydro-1H-isoquinolin-2-yl)-2-hydroxy-propyl]-8-[(5-fluoro-2-pyridyl)methoxy]-1-methyl-2,3-dihydro-1,4-benzodiazepin-5-one] | 100 to 1000 |
| CC1CN(C[C@H](O)CN2CCc3ccccc3C2)C(=O)c2ccc(OC3CCNCC3)cc2O1 (stereo partly drawn) [Example 140, 4-[(2R)-3-(3,4-dihydro-1H-isoquinolin-2-yl)-2-hydroxypropyl]-2-methyl-8-(4-piperidyloxy)-2,3-dihydro-1,4-benzoxazepin-5-one di hydrochloride] | 100 to 1000 |
| CC1CN(C[C@H](O)CN2CCc3ccccc3C2)C(=O)c2ccc(OC3CCN(C)CC3)cc2O1 (stereo partly drawn) [Example 141, 4-[(2R)-3-(3,4-dihydro-1H-isoquinolin-2-yl)-2-hydroxypropyl]-2-methyl-8-[(1-methyl-4-piperidyl)oxy]-2,3-dihydro-1,4-benzoxazepin-5-one] | 1 to 100 |
| CC(=O)N1CC(Oc2ccc3c(c2)O[C@H](C)CN(C[C@H](O)CN2CCc4ccccc4C2)C3=O)C1 [Example 142, (2R)-8-(1-acetylazetidin-3-yl)oxy-4-[(2R)-3-(3,4-dihydro-1H-isoquinolin-2-yl)-2-hydroxypropyl]-2-methyl-2,3-dihydro-1,4-benzoxazepin-5-one] | 1 to 100 |
| C[C@@H]1CN(C[C@H](O)CN2CCc3ccccc3C2)C(=O)c2ccc(OC3CCN(C)CC3)cc2O1 [Example 143, (2R)-4-[(2R)-3-(3,4-dihydro-1H-isoquinolin-2-yl)-2-hydroxypropyl]-2-methyl-8-[(1-methyl-4-piperidyl)oxy]-2,3-dihydro-1,4-benzoxazepin-5-one] | 100 to 1000 |
| CC1CN(C[C@H](O)CN2CCc3ccccc3C2)C(=O)c2ccc(OC3CCN(C)CC3)nc2O1 (stereo partly drawn) [Example 144, 4-[(2R)-3-(3,4-dihydro-1H-isoquinolin-2-yl)-2-hydroxypropyl]-2-methyl-8-[(1-methyl-4-piperidyl)oxy]-2,3-dihydropyrido[3,2-f][1,4]oxazepin-5-one] | 100 to 1000 |
| CN1CCC(Oc2ccc3c(n2)OC(C)(C)CN(C[C@H](O)CN2CCc4ccccc4C2)C3=O)CC1 [Example 145, 4-[(2R)-3-(3,4-dihydro-1H-isoquinolin-2-yl)-2-hydroxypropyl]-2,2-dimethyl-8-[(1-methyl-4-piperidyl)oxy]-3H-pyrido[3,2-f][1,4]oxazepin-5-one] | 100 to 1000 |
| C[C@H]1CN(C[C@H](O)CN2CCc3ccccc3C2)C(=O)c2ccc(OC3CCN(C)CC3)cc2O1 [Example 146, (2S)-4-[(2R)-3-(3,4-dihydro-1H-isoquinolin-2-yl)-2-hydroxypropyl]-2-methyl-8-[(1-methyl-4-piperidyl)oxy]-2,3-dihydro-1,4-benzoxazepin-5-one] | 100 to 1000 |
| N#CCN1CCC(Oc2ccc3c(c2)OCCN(C[C@H](O)CN2CCc4ccccc4C2)C3=O)CC1 [Example 159] | 100 to 1000 |

Now from value to molecule:

| IC50 [nM] | Compound |
| --- | --- |
| 100 to 1000 | CN1CCCC(Oc2ccc3c(c2)N(C)CCN(C[C@H](O)CN2CCc4ccccc4C2)C3=O)C1 (stereo partly drawn) [Example 130, 4-[(2R)-3-(3,4-dihydro-1H-isoquinolin-2-yl)-2-hydroxy-propyl]-1-methyl-8-[(1-methyl-3-piperidyl)oxy]-2,3-dihydro-1,4-benzodiazepin-5-one] |
| 100 to 1000 | CN1CCC(Oc2ccc3c(c2)N(C)CCN(C[C@H](O)CN2CCc4ccccc4C2)C3=O)C1 (stereo partly drawn) [Example 132, 4-[(2R)-3-(3,4-dihydro-1H-isoquinolin-2-yl)-2-hydroxy-propyl]-1-methyl-8-(1-methylpyrrolidin-3-yl)oxy-2,3-dihydro-1,4-benzodiazepin-5-one] |
| 100 to 1000 | CN1CCN(C[C@H](O)CN2CCc3ccccc3C2)C(=O)c2ccc(OC3CCNCC3F)cc21 (stereo partly drawn) [Example 135, 4-[(2R)-3-(3,4-dihydro-1H-isoquinolin-2-yl)-2-hydroxy-propyl]-8-[(3-fluoro-4-piperidyl)oxy]-1-methyl-2,3-dihydro-1,4-benzodiazepin-5-one; dihydrochloride] |
| 100 to 1000 | CC1CC(Oc2ccc3c(c2)N(C)CCN(C[C@H](O)CN2CCc4ccccc4C2)C3=O)CCN1 (stereo partly drawn) [Example 138, 4-[(2R)-3-(3,4-dihydro-1H-isoquinolin-2-yl)-2-hydroxy-propyl]-1-methyl-8-[(2-methyl-4-piperidyl)oxy]-2,3-dihydro-1,4-benzodiazepin-5-one; dihydrochloride] |
| 100 to 1000 | O=C1c2ccccc2OCCN1CC(O)CN1CCc2ccccc2C1 (stereo not drawn) [Example 147, 4-[3-(3,4-dihydro-1H-isoquinolin-2-yl)-2-hydroxy-propyl]-2,3-dihydro-1,4-benzoxazepin-5-one] |
| 1000 to 10000 | O=C1c2ccccc2CCCN1CC(O)CN1CCc2ccccc2C1 (stereo not drawn) [Example 148, 2-[3-(3,4-dihydro-1H-isoquinolin-2-yl)-2-hydroxy-propyl]-4,5-dihydro-3H-2-benzazepin-1-one] |
| 100 to 1000 | O=C1c2ccccc2OCCN1C[C@H](O)CN1CCc2ccccc2C1 [Example 149, 4-[(2R)-3-(3,4-dihydro-1H-isoquinolin-2-yl)-2-hydroxy-propyl]-2,3-dihydro-1,4-benzoxazepin-5-one] |
| 100 to 1000 | O=C1c2ccc(F)cc2OCCN1C[C@H](O)CN1CCc2ccccc2C1 [Example 150, 4-[(2R)-3-(3,4-dihydro-1H-isoquinolin-2-yl)-2-hydroxy-propyl]-8-fluoro-2,3-dihydro-1,4-benzoxazepin-5-one] |
| 1 to 100 | O=C1c2ccc(Br)cc2OCCN1C[C@H](O)CN1CCc2ccccc2C1 [Example 151, 8-bromo-4-[(2R)-3-(3,4-dihydro-1H-isoquinolin-2-yl)-2-hydroxy-propyl]-2,3-dihydro-1,4-benzoxazepin-5-one] |
| 100 to 1000 | O=C1c2ccncc2OCCN1C[C@H](O)CN1CCc2ccccc2C1 [Example 152, 4-[(2R)-3-(3,4-dihydro-1H-isoquinolin-2-yl)-2-hydroxy-propyl]-2,3-dihydropyrido[4,3-f][1,4]oxazepin-5-one] |
| 100 to 1000 | O=C1c2ccc(Cl)nc2OCCN1C[C@H](O)CN1CCc2ccccc2C1 [Example 153, 8-chloro-4-[(2R)-3-(3,4-dihydro-1H-isoquinolin-2-yl)-2-hydroxy-propyl]-2,3-dihydropyrido[3,2-f][1,4]oxazepin-5-one] |
| 1 to 100 | O=C1c2ccc(Cl)cc2CCCN1C[C@H](O)CN1CCc2ccccc2C1 [Example 154, 7-chloro-2-[(2R)-3-(3,4-dihydro-1H-isoquinolin-2-yl)-2-hydroxy-propyl]-4,5-dihydro-3H-2-benzazepin-1-one] |
| 1 to 100 | CCN1CCN(C[C@H](O)CN2CCc3ccccc3C2)C(=O)c2ccc(Br)cc21 [Example 157, 8-bromo-4-[(2R)-3-(3,4-dihydro-1H-isoquinolin-2-yl)-2-hydroxy-propyl]-1-ethyl-2,3-dihydro-1,4-benzodiazepin-5-one] |
